# In patent publication US20260174701A1, “HIGH STRENGTH SINGLE UNIT DOSE FORMULATIONS AND METHODS OF USE THEREOF” (Praxis Precision Medicines, Inc., priority 2023, published 2026):
# Key:
# animal model of ET = test: Animal model of ET; details: in vivo
# CaV3.3 = CaV3.3 (Homo sapiens, UniProt Q9P0X4); test: In vitro electrophysiology studies; type: cell-based
# CaV3.1 = CaV3.1 (Homo sapiens, UniProt O43497); test: In vitro electrophysiology studies; type: cell-based
# Sequence of CaV3.1 (O43497 whole entry): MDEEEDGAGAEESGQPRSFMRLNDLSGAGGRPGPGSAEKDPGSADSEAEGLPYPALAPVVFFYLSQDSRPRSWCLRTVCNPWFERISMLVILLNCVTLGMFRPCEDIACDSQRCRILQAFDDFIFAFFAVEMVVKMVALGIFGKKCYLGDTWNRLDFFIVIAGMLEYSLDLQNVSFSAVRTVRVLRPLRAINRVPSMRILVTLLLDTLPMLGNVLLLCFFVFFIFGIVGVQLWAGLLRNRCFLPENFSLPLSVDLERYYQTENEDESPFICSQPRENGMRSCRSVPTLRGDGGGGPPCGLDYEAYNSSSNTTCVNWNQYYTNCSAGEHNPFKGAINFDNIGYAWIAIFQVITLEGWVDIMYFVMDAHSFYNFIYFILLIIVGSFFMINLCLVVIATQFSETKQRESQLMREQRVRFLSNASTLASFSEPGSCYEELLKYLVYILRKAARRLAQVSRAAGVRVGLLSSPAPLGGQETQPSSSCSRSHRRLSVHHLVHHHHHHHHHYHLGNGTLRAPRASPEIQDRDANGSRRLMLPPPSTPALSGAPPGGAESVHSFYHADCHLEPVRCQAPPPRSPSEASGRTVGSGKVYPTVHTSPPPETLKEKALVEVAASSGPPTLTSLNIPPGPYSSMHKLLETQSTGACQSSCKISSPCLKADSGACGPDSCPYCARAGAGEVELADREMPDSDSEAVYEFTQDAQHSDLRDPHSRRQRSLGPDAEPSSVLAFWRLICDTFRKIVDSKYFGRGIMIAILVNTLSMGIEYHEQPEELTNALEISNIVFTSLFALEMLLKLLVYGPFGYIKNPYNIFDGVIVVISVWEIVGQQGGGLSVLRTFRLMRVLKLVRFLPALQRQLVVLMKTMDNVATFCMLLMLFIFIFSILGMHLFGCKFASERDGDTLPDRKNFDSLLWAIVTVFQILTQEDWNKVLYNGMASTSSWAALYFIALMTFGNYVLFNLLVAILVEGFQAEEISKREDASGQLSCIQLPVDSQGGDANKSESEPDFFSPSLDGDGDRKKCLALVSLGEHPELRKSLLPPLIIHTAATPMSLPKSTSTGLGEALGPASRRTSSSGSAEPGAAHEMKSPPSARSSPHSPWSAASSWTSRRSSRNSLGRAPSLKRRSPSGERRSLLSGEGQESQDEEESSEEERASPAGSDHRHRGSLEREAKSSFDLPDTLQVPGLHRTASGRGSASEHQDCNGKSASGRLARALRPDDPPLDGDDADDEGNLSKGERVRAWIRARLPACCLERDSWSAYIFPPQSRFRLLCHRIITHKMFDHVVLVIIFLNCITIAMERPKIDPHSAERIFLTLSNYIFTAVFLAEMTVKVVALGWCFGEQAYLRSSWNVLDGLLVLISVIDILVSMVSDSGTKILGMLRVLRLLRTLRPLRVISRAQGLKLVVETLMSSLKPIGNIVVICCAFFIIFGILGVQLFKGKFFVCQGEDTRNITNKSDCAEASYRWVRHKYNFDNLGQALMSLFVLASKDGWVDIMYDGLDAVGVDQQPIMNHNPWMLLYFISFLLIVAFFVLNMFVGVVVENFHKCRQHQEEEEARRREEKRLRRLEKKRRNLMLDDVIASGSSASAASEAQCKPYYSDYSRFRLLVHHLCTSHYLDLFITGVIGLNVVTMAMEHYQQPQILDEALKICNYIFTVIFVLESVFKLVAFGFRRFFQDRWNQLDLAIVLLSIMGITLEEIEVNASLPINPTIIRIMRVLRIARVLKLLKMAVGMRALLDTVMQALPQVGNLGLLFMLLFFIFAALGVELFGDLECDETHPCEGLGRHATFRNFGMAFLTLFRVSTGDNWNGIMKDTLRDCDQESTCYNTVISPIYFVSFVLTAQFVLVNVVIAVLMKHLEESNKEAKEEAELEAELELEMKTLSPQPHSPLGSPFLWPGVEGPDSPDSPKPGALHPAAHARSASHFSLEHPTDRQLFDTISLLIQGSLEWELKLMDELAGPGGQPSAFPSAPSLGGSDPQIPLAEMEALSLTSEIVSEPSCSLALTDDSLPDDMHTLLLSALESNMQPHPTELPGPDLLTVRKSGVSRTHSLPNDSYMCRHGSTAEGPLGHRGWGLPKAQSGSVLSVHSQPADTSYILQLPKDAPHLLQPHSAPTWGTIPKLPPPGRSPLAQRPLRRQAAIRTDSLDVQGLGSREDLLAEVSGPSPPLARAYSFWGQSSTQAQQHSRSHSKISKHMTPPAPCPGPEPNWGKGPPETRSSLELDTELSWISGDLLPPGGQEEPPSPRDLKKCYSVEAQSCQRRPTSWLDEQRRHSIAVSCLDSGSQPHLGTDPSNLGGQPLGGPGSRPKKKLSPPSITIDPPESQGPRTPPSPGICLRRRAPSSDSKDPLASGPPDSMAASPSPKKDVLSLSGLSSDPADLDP
# Sequence of CaV3.3 (Q9P0X4 whole entry): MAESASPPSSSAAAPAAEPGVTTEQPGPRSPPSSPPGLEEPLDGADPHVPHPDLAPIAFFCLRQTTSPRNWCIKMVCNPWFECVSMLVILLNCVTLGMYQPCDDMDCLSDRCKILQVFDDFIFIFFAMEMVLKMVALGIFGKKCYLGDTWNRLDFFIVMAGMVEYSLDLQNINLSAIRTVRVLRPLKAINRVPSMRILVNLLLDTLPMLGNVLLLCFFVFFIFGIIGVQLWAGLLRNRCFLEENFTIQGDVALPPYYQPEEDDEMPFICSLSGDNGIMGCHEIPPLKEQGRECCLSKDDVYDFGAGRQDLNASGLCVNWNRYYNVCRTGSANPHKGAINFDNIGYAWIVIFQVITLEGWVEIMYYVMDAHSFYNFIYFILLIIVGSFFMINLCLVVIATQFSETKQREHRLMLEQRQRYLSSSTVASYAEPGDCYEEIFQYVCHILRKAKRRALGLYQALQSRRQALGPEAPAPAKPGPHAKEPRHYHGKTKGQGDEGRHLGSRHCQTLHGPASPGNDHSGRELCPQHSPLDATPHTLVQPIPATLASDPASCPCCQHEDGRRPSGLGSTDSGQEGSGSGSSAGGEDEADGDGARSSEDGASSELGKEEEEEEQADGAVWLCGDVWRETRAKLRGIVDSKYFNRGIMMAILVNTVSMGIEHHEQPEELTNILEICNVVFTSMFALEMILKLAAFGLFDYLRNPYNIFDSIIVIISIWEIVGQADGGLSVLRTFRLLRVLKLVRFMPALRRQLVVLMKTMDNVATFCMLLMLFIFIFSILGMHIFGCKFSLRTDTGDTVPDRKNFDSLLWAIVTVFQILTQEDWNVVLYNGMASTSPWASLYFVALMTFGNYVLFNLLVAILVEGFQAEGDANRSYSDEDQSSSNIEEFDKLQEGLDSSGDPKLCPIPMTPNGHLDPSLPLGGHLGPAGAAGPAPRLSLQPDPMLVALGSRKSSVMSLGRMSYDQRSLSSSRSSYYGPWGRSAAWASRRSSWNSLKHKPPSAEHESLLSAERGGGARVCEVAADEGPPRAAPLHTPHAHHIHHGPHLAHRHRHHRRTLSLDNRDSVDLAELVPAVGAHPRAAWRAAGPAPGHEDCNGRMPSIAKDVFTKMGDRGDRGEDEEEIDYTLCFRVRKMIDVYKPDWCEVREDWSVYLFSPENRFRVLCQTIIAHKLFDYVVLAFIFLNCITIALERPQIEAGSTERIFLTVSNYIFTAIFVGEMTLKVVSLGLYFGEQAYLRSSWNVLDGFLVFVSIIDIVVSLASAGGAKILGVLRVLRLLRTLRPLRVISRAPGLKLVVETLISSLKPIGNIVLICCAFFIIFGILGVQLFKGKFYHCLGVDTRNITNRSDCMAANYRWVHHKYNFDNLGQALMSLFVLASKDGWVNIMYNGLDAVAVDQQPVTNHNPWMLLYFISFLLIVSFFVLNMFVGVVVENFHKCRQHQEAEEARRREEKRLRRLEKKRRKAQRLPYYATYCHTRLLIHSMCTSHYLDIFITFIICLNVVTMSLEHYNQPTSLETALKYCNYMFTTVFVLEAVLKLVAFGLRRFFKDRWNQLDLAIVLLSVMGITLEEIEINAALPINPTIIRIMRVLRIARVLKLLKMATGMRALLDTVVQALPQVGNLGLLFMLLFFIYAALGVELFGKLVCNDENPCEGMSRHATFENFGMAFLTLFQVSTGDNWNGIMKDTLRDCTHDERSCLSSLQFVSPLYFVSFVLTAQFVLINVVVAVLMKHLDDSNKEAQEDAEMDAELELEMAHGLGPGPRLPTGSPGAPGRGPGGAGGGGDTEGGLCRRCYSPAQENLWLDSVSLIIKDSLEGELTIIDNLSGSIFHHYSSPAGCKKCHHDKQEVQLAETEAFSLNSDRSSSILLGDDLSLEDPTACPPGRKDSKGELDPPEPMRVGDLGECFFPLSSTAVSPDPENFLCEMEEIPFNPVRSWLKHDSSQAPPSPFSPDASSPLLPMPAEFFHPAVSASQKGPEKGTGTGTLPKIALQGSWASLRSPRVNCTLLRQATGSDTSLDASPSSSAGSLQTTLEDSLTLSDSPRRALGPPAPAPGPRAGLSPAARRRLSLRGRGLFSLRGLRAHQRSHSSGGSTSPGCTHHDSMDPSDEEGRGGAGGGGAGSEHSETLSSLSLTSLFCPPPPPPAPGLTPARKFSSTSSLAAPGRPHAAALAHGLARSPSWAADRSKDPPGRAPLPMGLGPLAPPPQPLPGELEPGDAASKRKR
compound,measurement,setting,value
"CC(C)(C)NC(=O)CN1CCC(CNC(=O)c2cc(F)cc(Cl)c2)CC1.Cl [PRAX-944, N-((1-(2-(tert-butylamino)-2-oxoethyl)piperidin-4-yl)methyl)-3-chloro-5-fluorobenzamide hydrochloride]",Activity in an animal model of ET,animal model of ET,robust activity
same,Potency for T-type Ca2+ channels,CaV3.3,nanomolar
same,Potency for T-type Ca2+ channels,CaV3.1,nanomolar
